# Experimental data: ChEMBL document CHEMBL1148811, “N-benzoylpyrazoles are novel small-molecule inhibitors of human neutrophil elastase” (J Med Chem, 2007)
# Experiment: Chemical stability in aqueous buffer at PH 7.3 by spontaneous hydrolysis
# Assay type: physicochemical
row,half-life [h],Structure (SMILES)
1,2.6,Cc1nn(C(=O)c2ccc(Cl)cc2)c(C)c1Cl
2,0.1,Cc1ccc(C(=O)n2ccc([N+](=O)[O-])n2)cc1
3,3.1,Cc1nn(C(=O)c2cccc(Br)c2)c(C)c1Br
4,0.21,Cc1ccc(C(=O)c2ccn(C(=O)c3ccc(F)cc3)n2)c(C)c1
5,7.2,Cc1nn(C(=O)c2ccc(Cl)cc2Cl)c(C)c1Cl
6,10,CC(=O)Nc1ccc(C(=O)n2ccc(C)n2)cc1
7,0.29,COC(=O)c1ccnn1C(=O)c1ccc(Cl)cc1
8,5.6,Cc1cc(C)n(C(=O)c2ccc(Cl)c([N+](=O)[O-])c2)n1
9,4.2,COc1cc(C(=O)n2ccc(C)n2)cc(OC)c1OC
10,0.22,O=C(c1cccc([N+](=O)[O-])c1)n1cc(Cl)cn1
11,3,O=C(c1ccccc1Cl)n1cc(Cl)cn1
12,0.51,O=C(Nc1ccccc1)c1ccn(C(=O)c2ccccc2)n1
13,2.2,Cc1nn(C(=O)c2ccc(Cl)c([N+](=O)[O-])c2)c(C)c1Cl
14,2.5,O=C(c1cc(F)ccc1Cl)n1cccn1
15,0.04,O=C(c1ccccc1)n1cc([N+](=O)[O-])cn1
16,1.1,O=C(c1ccccc1Cl)n1cccn1
17,0.55,Cc1ccccc1C(=O)n1cc([N+](=O)[O-])cn1

row,half-life [h],Structure (SMILES)
1,1.2,Cc1ccccc1C(=O)n1cccn1
2,25.1,Cc1cc(C)n(C(=O)c2ccc(C)c(Br)c2)n1
3,2.1,Cc1ccc(C(=O)n2cc(Br)cn2)cc1
4,6.2,Cc1ccccc1C(=O)n1cc(Br)cn1
5,0.033,O=C(c1ccccc1)n1ccc([N+](=O)[O-])n1
6,5.1,Cc1cccc(C(=O)n2cc(Br)cn2)c1
7,2.1,Cc1nn(C(=O)c2ccc(Cl)cc2)c(C)c1Br
8,3.1,O=C(c1c(F)cccc1F)n1cc(Br)cn1
9,1.6,O=C(c1ccc(F)cc1)n1cc(Cl)cn1
10,5.3,Cc1nn(C(=O)c2ccccc2F)c(C)c1Cl
11,12.5,Cc1nn(C(=O)c2ccccc2Br)c(C)c1Cl
12,2.2,CC(C)(C)c1ccc(C(=O)n2cc(Cl)cn2)cc1
13,0.73,O=C(c1cc(F)c(F)cc1Cl)n1cc(Br)cn1
14,10,Cc1cc(C)n(C(=O)c2ccc(Cl)c(Cl)c2)n1
15,4.2,Cc1ccccc1C(=O)n1cc(Cl)cn1
16,0.16,Cc1cc([N+](=O)[O-])nn1C(=O)c1ccccc1F
17,1.1,O=C(c1ccc(Cl)c(Cl)c1)n1cccn1
